According to patent US9187471B2, “Pyrido [4,3-b] indole and pyrido [3,4-b] indole derivatives and methods of use” (Medivation Technologies, Inc., priority 2010, dated 2015):

How the values were obtained:
[1] = molecular target: T1, human recombinant serotonin (5-Hydroxytryptamine) 5-HT7 receptor (Homo sapiens, UniProt P34969); test: Serotonin 5-HT7 radioligand binding ([3H]LSD); conditions: compound at 0.1 μM; read-out: Inhibition of ligand binding, Serotonin 5-HT7 (percent inhibition of specific binding)
T1 construct: expressed in transfected cells; host or cells: CHO
Protocol: Lysergic acid diethylamide (LSD) for 120 min. at 25° C. […] Receptor proteins were filtered and washed, the filters were then counted to determine [^3H]LSD specifically bound.

[2] = molecular target: T2, human recombinant serotonin (5-Hydroxytryptamine) 5-HT2C receptor (Homo sapiens, UniProt P28335); test: Serotonin 5-HT2C radioligand binding ([3H]Mesulergine); conditions: compound at 0.1 μM; read-out: Inhibition of ligand binding, Serotonin 5-HT2C (percent inhibition of specific binding)
T2 construct: expressed in transfected cells; host or cells: CHO-K1
T2 sequence (P28335 33-458): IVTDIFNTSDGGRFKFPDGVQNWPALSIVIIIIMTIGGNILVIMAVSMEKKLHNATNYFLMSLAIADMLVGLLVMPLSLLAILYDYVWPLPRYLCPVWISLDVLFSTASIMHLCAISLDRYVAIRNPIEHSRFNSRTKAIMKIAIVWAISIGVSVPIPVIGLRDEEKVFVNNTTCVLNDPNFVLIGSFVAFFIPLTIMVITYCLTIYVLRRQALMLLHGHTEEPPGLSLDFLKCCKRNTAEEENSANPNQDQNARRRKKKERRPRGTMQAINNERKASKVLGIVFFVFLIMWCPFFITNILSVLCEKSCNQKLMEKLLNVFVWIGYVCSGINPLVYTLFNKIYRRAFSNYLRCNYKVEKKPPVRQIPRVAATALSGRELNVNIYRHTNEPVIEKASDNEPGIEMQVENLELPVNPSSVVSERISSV
Protocol: Compounds of the invention were incubated with 1 nM [^3H]Mesulergine for 60 min at 25° C. Non-specific binding was estimated in the presence of 1 μM Mianserin. Receptor proteins were filtered and washed, the filters were then counted to determine [^3H]Mesulergine specifically bound.

[3] = molecular target: T3, human recombinant serotonin (5-Hydroxytryptamine) 5-HT2A receptor (Homo sapiens, UniProt P28223); test: Serotonin 5-HT2A radioligand binding ([3H]Ketanserin); conditions: compound at 0.1 μM; read-out: Inhibition of ligand binding, Serotonin 5-HT2A (percent inhibition of specific binding)
T3 construct: expressed in transfected cells; host or cells: CHO-K1
Protocol: Compounds of the invention were incubated with 0.5 nM [^3H]Ketanserin for 60 min at 25° C. Non-specific binding was estimated in the presence of 1 μM Mianserin. Receptor proteins were filtered and washed, the filters were then counted to determine [^3H]Ketanserin specifically bound.

[4] = molecular target: T4, human recombinant dopamine D2L receptor (Homo sapiens, UniProt P14416); test: Dopamine D2L radioligand binding ([3H]Spiperone); conditions: read-out: Dopamine D2L (1 μM), percent inhibition of specific binding; compound at 1 μM; 0.16 nM [3H]Spiperone
T4 construct: expressed in transfected cells; host or cells: CHO
Protocol: Non-specific binding was estimated in the presence of 10 μM Haloperidol. Receptor proteins were filtered and washed, the filters were then counted to determine [^3H]Spiperone specifically bound.

[5] = molecular target: T5, human recombinant adrenergic α2A receptor (Homo sapiens, UniProt P08913); test: Adrenergic α2A radioligand binding ([3H]MK-912); conditions: read-out: Adrenergic (0.1 μM) a2A, percent inhibition of specific binding; compound at 0.1 μM; 1 nM [3H]MK-912
T5 construct: expressed in transfected cells; host or cells: insect Sf9 cells
T5 sequence (P08913 1-465): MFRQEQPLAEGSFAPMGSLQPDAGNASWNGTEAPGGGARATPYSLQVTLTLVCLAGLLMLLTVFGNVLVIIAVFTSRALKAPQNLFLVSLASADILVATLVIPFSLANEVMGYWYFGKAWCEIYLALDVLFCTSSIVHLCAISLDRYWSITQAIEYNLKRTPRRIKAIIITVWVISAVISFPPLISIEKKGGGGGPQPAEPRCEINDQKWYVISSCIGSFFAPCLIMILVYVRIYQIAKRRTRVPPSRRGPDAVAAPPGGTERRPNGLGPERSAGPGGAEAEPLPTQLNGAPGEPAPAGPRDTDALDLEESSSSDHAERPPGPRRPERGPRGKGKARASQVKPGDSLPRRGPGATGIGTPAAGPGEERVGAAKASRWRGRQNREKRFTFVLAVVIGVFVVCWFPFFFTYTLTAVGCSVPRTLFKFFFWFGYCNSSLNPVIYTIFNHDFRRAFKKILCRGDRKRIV
Protocol: To evaluate in radioligand binding assays the activity of compounds of the invention, human recombinant adrenergic α2A receptor expressed in insect Sf9 cells (Uhlen, S. et al, J. Pharmacol. Exp. Ther. 271:1558, 1994) in a modified Tris-HCl buffer (50 mM Tris-HCl, pH 7.4, 12.5 mM MgCl2, 2 mM EDTA) was used. Compounds of invention were incubated with 1 nM [^3H]MK-912 for 60 min at 25° C. MK-912 is (2S-trans)-1,3,4,5′,6,6′,7,12b-octahydro-1′,3′-dimethyl-spiro[2H-benzofuro[2,3-a]quinolizine-2,4′(1′H)-pyrimidin]-2′(3′H)-one hydrochloride Non-specific binding was estimated in the presence of 10 μM WB-4101 (2-(2,6-Dimethoxyphenoxyethyl)aminomethyl-1,4-benzodioxane hydrochloride). Receptor proteins were filtered and washed, the filters were then counted to determine [^3H]MK-912 specifically bound. […] Compounds of the invention were tested in this biochemical assay and percent inhibition of specific binding was determined.

Adrenergic α1B = molecular target: T6, Adrenergic α1B (Rattus norvegicus, UniProt P15823); test: Adrenergic α1B radioligand binding ([3H]Prazosin); conditions: read-out: Adrenergic (0.1 μM) a1B, percent inhibition of specific binding; compound at 0.1 μM; 0.25 nM [3H]Prazosin; Wistar Rat liver
T6 construct: rat adrenergic α1D receptor obtained from Wistar Rat liver; from tissue; host or cells: Wistar rat liver
T6 sequence (P15823 1-515): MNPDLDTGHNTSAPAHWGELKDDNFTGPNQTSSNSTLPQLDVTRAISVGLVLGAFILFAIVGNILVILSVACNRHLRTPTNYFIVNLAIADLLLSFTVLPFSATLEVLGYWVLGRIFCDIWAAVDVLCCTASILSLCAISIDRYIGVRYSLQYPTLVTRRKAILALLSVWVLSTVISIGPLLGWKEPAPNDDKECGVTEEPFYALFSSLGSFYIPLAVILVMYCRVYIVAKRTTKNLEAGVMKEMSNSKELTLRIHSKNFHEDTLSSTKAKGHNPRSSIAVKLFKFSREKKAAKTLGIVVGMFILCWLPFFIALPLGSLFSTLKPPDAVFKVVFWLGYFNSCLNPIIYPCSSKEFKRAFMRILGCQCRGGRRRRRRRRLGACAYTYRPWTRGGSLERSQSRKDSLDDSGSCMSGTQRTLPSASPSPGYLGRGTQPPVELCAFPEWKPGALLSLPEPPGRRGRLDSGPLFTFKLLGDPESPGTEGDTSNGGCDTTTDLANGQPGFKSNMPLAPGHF
Protocol: To evaluate in radioligand binding assays the activity of compounds of the invention, rat adrenergic α1D receptor obtained from Wistar Rat liver (Garcia-S'ainz, J. et al, Biochem. Biophys. Res. Commun. 186:760, 1992; Michel, A. et al, Br. J. Pharmacol. 98:883, 1989) in a modified Tris-HCl buffer (50 mM Tris-HCl buffer, pH 7.4, 0.5 mM EDTA) was used. Compounds of the invention were incubated with 0.25 nM [^3H]Prazosin for 60 min at 25° C. Non-specific binding was estimated in the presence of 10 μM phentolamine Receptor proteins were filtered and washed, the filters were then counted to determine [^3H]Prazosin specifically bound. […] Compounds of the invention were tested in this biochemical assay and percent inhibition of specific binding was determined.

T4 sequence (P14416 whole entry): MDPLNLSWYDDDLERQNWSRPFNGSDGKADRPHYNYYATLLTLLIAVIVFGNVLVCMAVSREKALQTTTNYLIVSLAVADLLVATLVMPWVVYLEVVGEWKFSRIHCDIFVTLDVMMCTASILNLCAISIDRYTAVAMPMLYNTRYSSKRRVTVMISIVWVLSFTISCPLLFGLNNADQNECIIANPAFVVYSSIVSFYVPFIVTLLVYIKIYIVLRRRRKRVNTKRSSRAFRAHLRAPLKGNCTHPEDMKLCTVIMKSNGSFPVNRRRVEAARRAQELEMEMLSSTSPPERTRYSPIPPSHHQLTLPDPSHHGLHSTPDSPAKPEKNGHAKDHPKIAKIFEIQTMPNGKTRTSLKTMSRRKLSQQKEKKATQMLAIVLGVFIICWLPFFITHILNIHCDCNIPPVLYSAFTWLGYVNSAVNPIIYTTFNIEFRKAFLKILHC
T3 sequence (P28223 whole entry): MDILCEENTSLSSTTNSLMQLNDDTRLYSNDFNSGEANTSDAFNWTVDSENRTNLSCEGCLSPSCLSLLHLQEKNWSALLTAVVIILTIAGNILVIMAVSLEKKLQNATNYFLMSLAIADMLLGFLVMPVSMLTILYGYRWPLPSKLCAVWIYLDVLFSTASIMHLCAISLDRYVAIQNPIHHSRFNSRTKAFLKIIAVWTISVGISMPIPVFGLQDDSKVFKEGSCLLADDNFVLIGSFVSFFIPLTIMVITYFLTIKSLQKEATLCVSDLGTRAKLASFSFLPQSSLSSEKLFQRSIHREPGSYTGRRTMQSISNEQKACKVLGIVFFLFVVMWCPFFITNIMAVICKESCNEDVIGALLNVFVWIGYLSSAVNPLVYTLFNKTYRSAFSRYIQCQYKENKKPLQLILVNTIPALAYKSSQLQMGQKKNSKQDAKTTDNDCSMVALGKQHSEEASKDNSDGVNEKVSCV
T1 sequence (P34969 whole entry): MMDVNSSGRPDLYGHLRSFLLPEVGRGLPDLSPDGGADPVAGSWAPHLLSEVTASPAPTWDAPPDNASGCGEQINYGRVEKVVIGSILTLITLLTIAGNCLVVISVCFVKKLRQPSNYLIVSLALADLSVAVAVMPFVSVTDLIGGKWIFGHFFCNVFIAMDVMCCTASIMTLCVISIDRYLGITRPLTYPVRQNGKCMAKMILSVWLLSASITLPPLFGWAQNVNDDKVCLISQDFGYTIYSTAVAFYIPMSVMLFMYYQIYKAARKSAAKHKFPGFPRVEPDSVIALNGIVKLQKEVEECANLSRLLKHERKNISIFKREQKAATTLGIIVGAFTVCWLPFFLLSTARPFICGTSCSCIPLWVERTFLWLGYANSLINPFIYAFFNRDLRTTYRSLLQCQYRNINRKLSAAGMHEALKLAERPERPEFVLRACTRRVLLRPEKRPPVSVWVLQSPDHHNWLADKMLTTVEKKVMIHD

Structure (SMILES): COc1ccc(-c2cscc2-n2c3c(c4cc(C)ccc42)CN(C)CC3)cc1 [Compound 37]
- inhibition at 0.1 µM [1]: 100%
- inhibition at 0.1 µM [2]: 81%
- inhibition at 0.1 µM [3]: 59%
- inhibition at 1 µM [4]: 18%
- inhibition at 0.1 µM [5]: 94%

Structure (SMILES): Cc1ccc2c(c1)c1c(n2-c2cscc2-c2ccc(C)s2)CCN(C)C1 [Compound No. 79]
- inhibition at 0.1 µM [1]: 98%
- inhibition at 0.1 µM [2]: 92%
- inhibition at 0.1 µM [3]: 77%
- inhibition at 1 µM [4]: 30%
- inhibition at 0.1 µM [5]: 92%

Structure (SMILES): CNC(=O)c1cccc(-c2ccc(-n3c4c(c5cc(C)ccc53)CN(C)CC4)nc2)c1 [Compound No. 143, 3-(6-(2,8-dimethyl-3,4-dihydro-1H-pyrido[4,3-b]indol-5(2H)-yl)pyridin-3-yl)-N-methylbenzamide]
- inhibition at 0.1 µM [1]: 11%
- inhibition at 0.1 µM (Adrenergic α1B): 83%
- inhibition at 0.1 µM [2]: 44%
- inhibition at 0.1 µM [3]: 55%
- inhibition at 1 µM [4]: 19%
- inhibition at 0.1 µM [5]: 44%

Structure (SMILES): Cc1ccc2c(c1)c1c(n2-c2ccccc2-c2ccc3c(ccn3C)c2)CCN(C)C1 [Compound No. 85, 2,8-dimethyl-5-(2-(1-methyl-1H-indol-5-yl)phenyl)-2,3,4,5-tetrahydro-1H-pyrido[4,3-b]indole]
- inhibition at 0.1 µM [1]: 26%
- inhibition at 0.1 µM [2]: 50%
- inhibition at 0.1 µM [3]: 49%
- inhibition at 1 µM [4]: 11%
- inhibition at 0.1 µM [5]: 94%

Structure (SMILES): Cc1csc(-c2cscc2-n2c3c(c4cc(C)ccc42)CN(C)CC3)c1 [Compound 50]
- inhibition at 0.1 µM [1]: 97%
- inhibition at 0.1 µM [2]: 92%
- inhibition at 0.1 µM [3]: 86%
- inhibition at 1 µM [4]: 36%
- inhibition at 0.1 µM [5]: 93%

Structure (SMILES): Cc1ccc2c(c1)c1c(n2-c2cscc2-c2ccc3c(ccn3C)c2)CCN(C)C1 [Compound 33]
- inhibition at 0.1 µM [1]: 94%
- inhibition at 0.1 µM (Adrenergic α1B): 52%
- inhibition at 0.1 µM [2]: 49%
- inhibition at 0.1 µM [3]: 39%
- inhibition at 1 µM [4]: 19%
- inhibition at 0.1 µM [5]: 100%

Structure (SMILES): Cc1ccc2c(c1)c1c(n2-c2cscc2-c2ccc3cnccc3c2)CCN(C)C1 [Compound No. 68]
- inhibition at 0.1 µM [1]: 99%
- inhibition at 0.1 µM [2]: 10%
- inhibition at 0.1 µM [3]: 35%
- inhibition at 1 µM [4]: 9%
- inhibition at 0.1 µM [5]: 90%

Structure (SMILES): Cc1ccc2c(c1)c1c(n2-c2cscc2-c2ccc(S(C)(=O)=O)cc2)CCN(C)C1 [Compound No. 76]
- inhibition at 0.1 µM [1]: 85%
- inhibition at 0.1 µM [2]: 24%
- inhibition at 0.1 µM [3]: 30%
- inhibition at 1 µM [4]: 11%
- inhibition at 0.1 µM [5]: 90%
